Test results reported in patent US6664096B2, “Methods for improved diagnosis and treatment of mycobacterial infections” (priority 2000, dated 2003).
Like-named read-outs stand apart in the source and are kept apart here.

Tests used:
Format in all cases: cell-based
M. tuberculosis H37Ra [1] = details: 4 week old culture
M. tuberculosis H37Ra [2] = details: 7-month-old culture
M. tuberculosis H37Ra [3] = details: 7-month-old culture; remark: listed apart in the source
M. tuberculosis H37Ra [4] = details: 7-month-old culture; remark: listed apart in the source
M. tuberculosis H37Ra [5] = experiment: Resuscitation of 6 month old culture by phospholipids, CFU on 7H11 agar; details: for CFU/ml: 4 μg/ml, 6 month old cells, 7H11 agar, 3 weeks
Experimental: M. tuberculosis H37Ra cultures were grown in 7H9 medium containing Tween 80 (0.05%) and ADC (albumin-dextrose-catalase) enrichment at 37° C. for various periods of time as standing batch cultures. Cultures of varying age up to one year were used for the resuscitation experiments. Resuscitation of dormant M. tuberculosis by phosphatidylserine was performed as follows. A 6 month old M. tuberculosis H37Ra culture was washed and resuspended in 7H9 medium followed by plating at different dilutions on 7H11 agar plates containing 4 μg/ml phosphatidylserine (derived from bovine brain, containing a mixture of two unknown fatty acyl groups, Sigma Chemical Co.) or phosphatidylserine dioleoyl. The plates were incubated at 37° C. for 3 weeks when the CFU was determined. Data represent average of duplicate samples.
To confirm that a phospholipid was responsible for activity, we first tested commercially available phosphatidyl-L-serine and a dioleoyl phosphatidyl-L-serine, both of which are precursor of phosphatidylethanolamine and phosphatidylcholine, for resuscitation activity for the 6 month old M. tuberculosis H37Ra cells. Both compounds had significant resuscitation activity over medium control as judged by colony forming units (CFU) assay. Phosphatidyl-L-serine and a dioleoyl phosphatidyl-L-serine at 4 μg/ml gave 1.2×10^7, 2×10^6 CFU/ml, respectively, whereas the medium control produced 3×10^4 CFU/ml.

M. tuberculosis H37Ra [6] = experiment: Growth of small inocula of fresh 4-week-old culture with phosphatidylserine; details: 5 μg/ml in Sauton's medium, 20 days
Experimental: It is well known that to initiate growth of M. tuberculosis in liquid culture a large inoculum is required (Dubos and Davis, 1946). In a separate experiment involving a fresh 4-week-old M. tuberculosis H37Ra culture, the culture was serially diluted into Sauton's medium (1 ml) alone or into medium containing 5 μg/ml phosphatidylserine at 10^−2, 10^−3, 10^−4, 10^−5, 10^−6, 10^−7 dilutions. The cultures were incubated at 37° C. for 20 days when the visible growth was assessed and the cultures were plated on 7H11 plates, which were incubated at 37° C. for 3 weeks. Phosphatidyl-L-serine allowed small inocula (10^−7 dilution) to form visible growth and CFU on plates, whereas the control culture grew only at 10^−5 dilution.

“NH2-LNATDPGAAAQFNASPVAQSYLRN-OH (H-LNATDPGAAAQFNASPVAQSYLRN-OH; listed as Mycobacterium tuberculosis) [Peptide P2, residues 48-71]” gave a CFU values (M. tuberculosis H37Ra [1]; day 3) of 225000 mL⁻¹, a CFU values (M. tuberculosis H37Ra [1]; day 5) of 500000 mL⁻¹ and a CFU values (M. tuberculosis H37Ra [1]; day 8) of 1.5e+07 mL⁻¹. For the same compound, the CFU values (M. tuberculosis H37Ra [1]; day 11) was 7.5e+07 mL⁻¹, the CFU data (M. tuberculosis H37Ra [2]; day 5) was 100 × 10^5 CFU/ml and the CFU data (M. tuberculosis H37Ra [2]; day 10) was 200 × 10^5 CFU/ml. For the same compound, the “MTT data (OD readings at 570 nm)” value (M. tuberculosis H37Ra [3]; day 0) was 0.2609 OD, the “MTT data (OD readings at 570 nm)” value (M. tuberculosis H37Ra [3]; day 5) was 0.6269 OD and the “MTT data (OD readings at 570 nm)” value (M. tuberculosis H37Ra [3]; day 10) was 1.1567 OD. For the same compound, the “FDA-EB viability staining (% of viable green cells)” value (M. tuberculosis H37Ra [4]; day 0) was 1%, the “FDA-EB viability staining (% of viable green cells)” value (M. tuberculosis H37Ra [4]; day 5) was 2% and the “FDA-EB viability staining (% of viable green cells)” value (M. tuberculosis H37Ra [4]; day 10) was 27.5%.

In the case of phosphatidyl-L-serine, the CFU/ml (M. tuberculosis H37Ra [5]) is reported as 1.2×10^7 CFU/ml and the “small inocula (dilution) forming visible growth and CFU on plates” value (M. tuberculosis H37Ra [6]) is reported as 10^−7.

Compound “NH2-LRNFLAAPPPQRAAMAAQLQAV-OH (H-LRNFLAAPPPQRAAMAAQLQAV-OH; listed as Mycobacterium tuberculosis) [Peptide P3, residues 69-90]” has a CFU values (M. tuberculosis H37Ra [1]; day 3) of 450000 mL⁻¹, a CFU values (M. tuberculosis H37Ra [1]; day 5) of 4.5e+07 mL⁻¹ and a CFU values (M. tuberculosis H37Ra [1]; day 8) of 1.5e+08 mL⁻¹. For the same compound, the CFU values (M. tuberculosis H37Ra [1]; day 11) was 1.5e+08 mL⁻¹, the CFU data (M. tuberculosis H37Ra [2]; day 5) was 40 × 10^5 CFU/ml and the CFU data (M. tuberculosis H37Ra [2]; day 10) was 800 × 10^5 CFU/ml. The “MTT data (OD readings at 570 nm)” value (M. tuberculosis H37Ra [3]; day 0) was 0.3147 OD, the “MTT data (OD readings at 570 nm)” value (M. tuberculosis H37Ra [3]; day 5) was 0.6219 OD and the “MTT data (OD readings at 570 nm)” value (M. tuberculosis H37Ra [3]; day 10) was 1.1917 OD. The “FDA-EB viability staining (% of viable green cells)” value (M. tuberculosis H37Ra [4]; day 0) was 2%, the “FDA-EB viability staining (% of viable green cells)” value (M. tuberculosis H37Ra [4]; day 5) was 4.5% and the “FDA-EB viability staining (% of viable green cells)” value (M. tuberculosis H37Ra [4]; day 10) was 42.5%.

CCCCCCCC/C=C\CCCCCCCC(=O)OC[C@H](COP(=O)(O)OC[C@H](N)C(=O)O)OC(=O)CCCCCCC/C=C\CCCCCCCC [dioleoyl phosphatidyl-L-serine] was tested, and the CFU/ml (M. tuberculosis H37Ra [5]) was 2×10^6 CFU/ml.

For “NH2-AQLQAVPGAAQYIGLVESVAGSCNNY-OH (H-AQLQAVPGAAQYIGLVESVAGSCNNY-OH; listed as Mycobacterium tuberculosis) [Peptide P4, residues 85-110]”, the CFU values (M. tuberculosis H37Ra [1]; day 3) was 2e+06 mL⁻¹, the CFU values (M. tuberculosis H37Ra [1]; day 5) was 3.25e+06 mL⁻¹ and the CFU values (M. tuberculosis H37Ra [1]; day 8) was 7.5e+07 mL⁻¹. The CFU values (M. tuberculosis H37Ra [1]; day 11) was 2e+08 mL⁻¹, the CFU data (M. tuberculosis H37Ra [2]; day 5) was 50 × 10^5 CFU/ml and the CFU data (M. tuberculosis H37Ra [2]; day 10) was 900 × 10^5 CFU/ml. The “MTT data (OD readings at 570 nm)” value (M. tuberculosis H37Ra [3]; day 0) was 0.2248 OD, the “MTT data (OD readings at 570 nm)” value (M. tuberculosis H37Ra [3]; day 5) was 0.6287 OD and the “MTT data (OD readings at 570 nm)” value (M. tuberculosis H37Ra [3]; day 10) was 1.4131 OD. For the same compound, the “FDA-EB viability staining (% of viable green cells)” value (M. tuberculosis H37Ra [4]; day 0) was 1%, the “FDA-EB viability staining (% of viable green cells)” value (M. tuberculosis H37Ra [4]; day 5) was 11.5% and the “FDA-EB viability staining (% of viable green cells)” value (M. tuberculosis H37Ra [4]; day 10) was 50%.

“phosphatidylglycerol-oleoyl-palmitoyl [reference compound]” was tested, and the “resuscitation and growth enhancing activity” value (M. tuberculosis H37Ra [5]; compared with phosphatidylserine) was “did not have significant activity”.
